Target: menin protein (Homo sapiens (Human), UniProt O00255)
Test: biochemical
Assay type: binding
Conditions: FP competitive binding, menin protein 4 nM, FAM-MM2 probe 2 nM; for IC50: read-out: Menin Binding Affinity IC50
In short: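 Competitive fluorescence polarization assay using FAM-labelled MLL1 peptide probe FAM-MM2 (2 nM final) preincubated with menin (4 nM final) in PBS with 0.02% bovine γ-globulin, 4% DMSO and 0.01% Triton X-100. Compounds were added and incubated 30 min at room temperature. IC50 came from nonlinear regression of competition curves, with Ki also derived.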

Chain of menin protein (O00255 whole entry): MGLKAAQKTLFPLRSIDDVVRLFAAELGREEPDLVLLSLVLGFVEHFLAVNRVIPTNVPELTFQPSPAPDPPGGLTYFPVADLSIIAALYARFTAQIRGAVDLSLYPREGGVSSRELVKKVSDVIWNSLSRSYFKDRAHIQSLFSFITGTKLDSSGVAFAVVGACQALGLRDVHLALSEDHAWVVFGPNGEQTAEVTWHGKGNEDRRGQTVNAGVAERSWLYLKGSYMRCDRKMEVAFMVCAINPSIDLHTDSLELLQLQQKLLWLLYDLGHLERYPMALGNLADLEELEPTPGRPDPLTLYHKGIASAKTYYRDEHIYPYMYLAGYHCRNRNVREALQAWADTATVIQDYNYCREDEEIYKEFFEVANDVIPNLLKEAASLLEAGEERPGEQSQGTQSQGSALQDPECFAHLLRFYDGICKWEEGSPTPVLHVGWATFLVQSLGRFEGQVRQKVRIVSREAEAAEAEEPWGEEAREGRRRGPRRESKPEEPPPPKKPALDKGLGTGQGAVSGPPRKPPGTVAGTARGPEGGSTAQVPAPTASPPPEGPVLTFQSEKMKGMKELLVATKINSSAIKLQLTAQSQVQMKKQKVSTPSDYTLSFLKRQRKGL

| SMILES | IC50 [nM] | Menin Binding Affinity IC50 (μM) |
| --- | --- | --- |
| COCC[C@@H]1CCC[C@H]1C(C#N)(c1ccccc1)C1CCN(CC2CN(c3ccc(S(=O)(=O)c4ccnc(C)c4)cc3)C2)CC1 (mixture of isomers) [compound 337, rac-2-((1R,2S)-2-(2-methoxyethyl)cyclopentyl)-2-(1-((1-(4-((2-methylpyridin-4-yl)sulfonyl)phenyl)azetidin-3-yl)methyl)piperidin-4-yl)-2-phenylacetonitrile] | 25800 | – |
| CNC(=O)C[C@@H]1CCC[C@H]1C(C#N)(c1ccccc1)C1CCN(CC2CN(c3ccc(S(=O)(=O)c4ccncc4)cc3)C2)CC1 (mixture of isomers) [compound 339, rac-2-((1S,2R)-2-(cyano(phenyl)(1-((1-(4-(pyridin-4-ylsulfonyl)phenyl)azetidin-3-yl)methyl)piperidin-4-yl)methyl)cyclopentyl)-N-methylacetamide] | 5200 | – |
| CNC(=O)C[C@H]1CCC[C@@H]1C(C#N)(c1ccccc1)C1CCN(CC2CN(c3ccc(S(=O)(=O)c4ccncc4)cc3)C2)CC1 (mixture of isomers) [compound 340, rac-2-((1R,2S)-2-(cyano(phenyl)(1-((1-(4-(pyridin-4-ylsulfonyl)phenyl)azetidin-3-yl)methyl)piperidin-4-yl)methyl)cyclopentyl)-N-methylacetamide] | 2900 | – |
| N#CC(c1ccccc1)(C1CCN(CC2CN(c3ccc(S(=O)(=O)c4ccncc4)cc3)C2)CC1)[C@H]1CCC[C@@H]1CCO (mixture of isomers) [compound 342, rac-2-((1S,2R)-2-(2-hydroxyethyl)cyclopentyl)-2-phenyl-2-(1-((1-(4-(pyridin-4-ylsulfonyl)phenyl)azetidin-3-yl)methyl)piperidin-4-yl)acetonitrile] | 897 | – |
| COC(=O)N[C@@H]1CCC[C@H]1C(C#N)(c1ccccc1)C1CCN(CC2CN(c3ccc(S(=O)(=O)c4ccccc4)cc3)C2)CC1 (mixture of isomers) [compound 348, methyl (rac-(1R,2S)-2-(cyano(phenyl)(1-((1-(4-(phenylsulfonyl)phenyl)azetidin-3-yl)methyl)piperidin-4-yl)methyl)cyclopentyl) carbamate] | 819 | – |
| COC(=O)N[C@@H]1CCC[C@H]1C(C#N)(c1ccccc1)C1CCN(CC2CN(c3ccc(S(=O)(=O)c4ccc(C(=O)O)cc4)cc3)C2)CC1 (mixture of isomers) [compound 352, rac-4-((4-(3-((4-(cyano((1S,2R)-2-((methoxycarbonyl)amino)cyclopentyl)(phenyl)methyl)piperidin-1-yl)methyl)azetidin-1-yl)phenyl)sulfonyl)benzoic acid] | 2700 | – |
| CNC(=O)O[C@@H]1CCC[C@H]1C(Cn1cccc1)(c1ccccc1)C1CCN(CC2CN(c3ccc(S(=O)(=O)c4ccccc4)cc3)C2)CC1 (mixture of isomers) [compound 358, rac-(1R,2S)-2-(1-phenyl-1-(1-((1-(4-(phenylsulfonyl)phenyl)azetidin-3-yl)methyl)piperidin-4-yl)-2-(1H-pyrrol-1-yl)ethyl)cyclopentyl methylcarbamate] | 221 | – |
| CNC(=O)O[C@@H]1CCC[C@H]1C(CN1CCCC1)(c1ccccc1)C1CCN(CC2CN(c3ccc(S(=O)(=O)c4ccccc4)cc3)C2)CC1 (mixture of isomers) [compound 360, rac-(1R,2S)-2-(1-phenyl-1-(1-((1-(4-(phenylsulfonyl)phenyl)azetidin-3-yl)methyl)piperidin-4-yl)-2-(pyrrolidin-1-yl)ethyl)cyclopentyl methylcarbamate] | 1400 | – |
| CNC(=O)O[C@H]1CCC[C@@H]1C(CN1CCCC1)(c1ccccc1)C1CCN(CC2CN(c3ccc(S(=O)(=O)c4ccccc4)cc3)C2)CC1 (mixture of isomers) [compound 361, rac-(1S,2R)-2-(1-phenyl-1-(1-((1-(4-(phenylsulfonyl)phenyl)azetidin-3-yl)methyl)piperidin-4-yl)-2-(pyrrolidin-1-yl)ethyl)cyclopentyl methylcarbamate] | 63 | – |
| CNC(=O)O[C@@H]1CCC[C@H]1C(C#N)(c1ccccc1)C1CCN(CC2CN(c3ccc(C#N)cc3)C2)CC1 (mixture of isomers) [compound 364, rac-(1R,2S)-2-(cyano(1-((1-(4-cyanophenyl)azetidin-3-yl)methyl)piperidin-4-yl)(phenyl)methyl)cyclopentyl methylcarbamate] | 3100 | – |
| CNC(=O)O[C@@H]1CCC[C@H]1C(Cn1ccnc1)(c1ccccc1)C1CCN(CC2CN(c3ccc(C#N)cc3)C2)CC1 (mixture of isomers) [compound 365, rac-(1R,2S)-2-(1-(1-((1-(4-cyanophenyl)azetidin-3-yl)methyl)piperidin-4-yl)-2-(1H-imidazol-1-yl)-1-phenylethyl)cyclopentyl methylcarbamate] | 281 | – |
| CNC(=O)O[C@@H]1CCC[C@H]1C(C#N)(c1ccccc1)C1CCN(CC2CN(c3ccc(C(F)(F)F)cc3)C2)CC1 (mixture of isomers) [compound 368, rac-(1R,2S)-2-(cyano(phenyl)(1-((1-(4-(trifluoromethyl)phenyl)azetidin-3-yl)methyl)piperidin-4-yl)methyl)cyclopentyl methylcarbamate] | 506 | – |
| CNC(=O)O[C@@H]1CCC[C@H]1C(C#N)(c1ccccc1)C1CCN(CC2(F)CN(c3ccc(S(=O)(=O)c4cnn(C)c4)cc3)C2)CC1 (mixture of isomers) [compound 370, rac-(1R,2S)-2-(cyano(1-((3-fluoro-1-(4-((1-methyl-1H-pyrazol-4-yl)sulfonyl)phenyl)azetidin-3-yl)methyl)piperidin-4-yl)(phenyl)methyl)cyclopentyl methylcarbamate] | 3600 | – |
| CNC(=O)O[C@@H]1CCC[C@H]1C(C#N)(c1ccccc1)C1CCN(CC2(C)CN(c3ccc(S(=O)(=O)c4cnn(C)c4)cc3)C2)CC1 (mixture of isomers) [compound 371, rac-(1R,2S)-2-(cyano(1-((3-methyl-1-(4-((1-methyl-1H-pyrazol-4-yl)sulfonyl)phenyl)azetidin-3-yl)methyl)piperidin-4-yl)(phenyl)methyl)cyclopentyl methylcarbamate] | 2100 | – |
| CNC(=O)O[C@H]1CCC[C@@H]1C(C#N)(c1ccccc1)C1CCN(CC2CN(c3ccc(C(=O)OC)cc3)C2)CC1 (mixture of isomers) [compound 373, methyl rac-4-(3-((4-(cyano((1R,2S)-2-((methylcarbamoyl)oxy)cyclopentyl)(phenyl)methyl)piperidin-1-yl)methyl)azetidin-1-yl)benzoate] | 112 | – |
| CNC(=O)O[C@@H]1CCC[C@H]1C(C#N)(c1ccccc1)C1CCN(CC2CN(c3ccc(C(=O)OC)cc3)C2)CC1 (mixture of isomers) [compound 374, methyl rac-4-(3-((4-(cyano((1S,2R)-2-((methylcarbamoyl)oxy)cyclopentyl)(phenyl)methyl)piperidin-1-yl)methyl)azetidin-1-yl)benzoate] | 4700 | – |
| CN(C)C(=O)N[C@@H]1CCC[C@H]1C(Cn1ccnc1)(c1ccccc1)C1CCN(CC2CN(c3ccc(S(=O)(=O)c4cnn(C)c4)cc3)C2)CC1 (mixture of isomers) [compound 377, rac-3-((1R,2S)-2-(2-(1H-imidazol-1-yl)-1-(1-((1-(4-((1-methyl-1H-pyrazol-4-yl)sulfonyl)phenyl)azetidin-3-yl)methyl)piperidin-4-yl)-1-phenylethyl)cyclopentyl)-1,1-dimethylurea] | 1130 | – |
| CNC(=O)N[C@H]1CCC[C@@H]1C(CNC(=O)c1cocn1)(c1ccccc1)C1CCN(CC2CN(c3ccc(C#N)cc3)C2)CC1 (mixture of isomers) [compound 378, rac-N-(2-(1-((1-(4-cyanophenyl)azetidin-3-yl)methyl)piperidin-4-yl)-2-((1R,2S)-2-(3-methylureido)cyclopentyl)-2-phenylethyl)oxazole-4-carboxamide] | 32 | – |
| CNC(=O)N[C@@H]1CCC[C@H]1C(CNC(=O)c1cocn1)(c1ccccc1)C1CCN(CC2CN(c3ccc(C#N)cc3)C2)CC1 (mixture of isomers) [compound 379, rac-N-(2-(1-((1-(4-cyanophenyl)azetidin-3-yl)methyl)piperidin-4-yl)-2-((1S,2R)-2-(3-methylureido)cyclopentyl)-2-phenylethyl)oxazole-4-carboxamide] | 3800 | – |
| CNC(=O)O[C@H]1CCC[C@@H]1C(Cn1ccnc1)(c1ccccc1)C1CCN(C(=O)CCCc2ccc(C#N)cc2)CC1 (mixture of isomers) [compound 380, rac-(1S,2R)-2-(1-(1-(4-(4-cyanophenyl)butanoyl)piperidin-4-yl)-2-(1H-imidazol-1-yl)-1-phenylethyl)cyclopentyl methylcarbamate] | 798 | – |
| CC(=O)N[C@H]1CCC[C@@H]1C(C#N)(c1ccccc1)C1CCN(CC2CN(c3ccc(C#N)cc3)C2)CC1 (mixture of isomers) [compound 382, rac-N-((1S,2R)-2-(cyano(1-((1-(4-cyanophenyl)azetidin-3-yl)methyl)piperidin-4-yl)(phenyl)methyl)cyclopentyl)acetamide] | 102 | – |
| CC(=O)N[C@@H]1CCC[C@H]1C(C#N)(c1ccccc1)C1CCN(CC2CN(c3ccc(C#N)cc3)C2)CC1 (mixture of isomers) [compound 383, rac-N-((1R,2S)-2-(cyano(1-((1-(4-cyanophenyl)azetidin-3-yl)methyl)piperidin-4-yl)(phenyl)methyl)cyclopentyl)acetamide] | 2500 | – |
| CNC(=O)O[C@@H]1CCC[C@H]1C(C#N)(c1ccccc1)C1CCN(CC2CN(c3ccc([N+](=O)[O-])cc3)C2)CC1 (mixture of isomers) [compound 384, rac-(1R,2S)-2-(cyano(1-((1-(4-nitrophenyl)azetidin-3-yl)methyl)piperidin-4-yl)(phenyl)methyl)cyclopentyl methylcarbamate] | 4600 | – |
| CNC(=O)O[C@H]1CCC[C@@H]1C(C#N)(c1ccccc1)C1CCN(CC2CN(c3ccc([N+](=O)[O-])cc3)C2)CC1 (mixture of isomers) [compound 385, rac-(1S,2R)-2-(cyano(1-((1-(4-nitrophenyl)azetidin-3-yl)methyl)piperidin-4-yl)(phenyl)methyl)cyclopentyl methylcarbamate] | 13 | – |
| CC(=O)O[C@H]1CCC[C@@H]1C(C#N)(c1ccccc1)C1CCN(CC#Cc2ccc(C#N)cc2)CC1 (mixture of isomers) [compound 386, rac-(1S,2R)-2-(cyano(1-(3-(4-cyanophenyl)prop-2-yn-1-yl)piperidin-4-yl)(phenyl)methyl)cyclopentyl acetate] | – | No inhibition |

Reference: US10899738B2 (THE REGENTS OF THE UNIVERSITY OF MICHIGAN, priority 2016, dated 2021)
